Reference: paper PMC7108782, “Direct interaction of metastasis-inducing S100P protein with tubulin causes enhanced cell migration without changes in cell adhesion” (Biochemical Journal, 2020)
“Also recorded” adds a separate entry of the source. No end group written: not given here.

Experiments:
S100P = biological target: T1, S100P (Homo sapiens, UniProt P25815); assay: Isothermal titration calorimetry (ITC) of tubulin peptides with S100P; type: binding; conditions: ITC, 25°C, 20 mM MES pH 6.1, 50 mM NaCl, 1.0 mM TCEP, 5 mM CaCl2; single site fit; peptide in cell, S100P titrated
T1 construct: made in house
T1 sequence (P25815 1-95): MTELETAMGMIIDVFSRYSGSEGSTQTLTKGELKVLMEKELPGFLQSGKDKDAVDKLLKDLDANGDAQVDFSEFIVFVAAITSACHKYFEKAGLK
Description: Measurements were conducted using an ITC-200 instrument (Microcal) as previously described. ITC titrations were performed in 20 mM MES pH 6.1, 50 mM NaCl, 1.0 mM TCEP and 5 mM CaCl2 (for Ca^2+-form of S100P) at 25°C. Due to low solubility, peptide solutions at concentrations of 10–400 µM were placed in the cell and titrated with S100P at concentrations of 0.5–3 mM, depending on the peptide concentration. Data were integrated and fitted to a single site binding equation using Origin 7 software which was included with the ITC module (Malvern Microcal, Malvern, U.K.).

[1] = type: physicochemical; conditions: pH 6.1
Description: ^1H, ^15N HSQC spectra were measured at 40°C in 20 mM 2-morpholinoethanesulfonic acid sodium salt (MES), 50 mM NaCl, 0.5 mM CaCl2, 2 mM Tris-carboxyethyl-phosphine (TCEP), pH 6.1 buffer as described previously. Samples were prepared from 1.6 mM solution of ^15N-labelled S100P and 2–5 mM peptide solutions to obtain a 1 : 1 mixture of 0.1 mM of S100P and 0.1 mM of each peptide. Initially, peptide solutions were prepared by weight to produce 5 mM peptide concentrations. […] In these cases, buffer was added to reduce the peptide concentration to 2 mM. […] These peptides were added to the protein as cloudy suspensions to produce 0.1 mM solutions; some precipitations were still detected. To estimate the peptide concentrations, equivalent peptide solutions without the protein were prepared. All solutions were centrifuged before the NMR measurements. NMR spectra were collected on Bruker Avance III 800 MHz spectrometer equipped with CryoProbe. Data were processed and analysed in TopSpin 3.5 (Bruker, Karlsruhe, Germany).
Measurements were conducted using an ITC-200 instrument (Microcal) as previously described. ITC titrations were performed in 20 mM MES pH 6.1, 50 mM NaCl, 1.0 mM TCEP and 5 mM CaCl2 (for Ca^2+-form of S100P) at 25°C. […]

HeLa cells = assay: Boyden chamber cell migration with MT regulators, HeLa; conditions: 20 nM taxol, 24 h
COS-7 S10 cells = assay: Boyden chamber cell migration, S100P-inducible COS-7; type: cell-based, monkey; conditions: for effect on S100P-enhanced migration: COS-7 S10, 20 nM taxol or 5 µM colchicine, 24 h
Excerpt: (§1) Cell migration rate (%) = M/G × 100.

cell migration = conditions: almost all cell types tested, ref [17]; cited from earlier work
Excerpt: It was reported that complete disruption of MTs in CHO and HeLa cells retained normal migration rates, but the resultant movement became more random and reduced overall travel distance.

MCF-7 cells = assay: Boyden chamber cell migration with MT regulators, MCF-7; conditions: 20 nM taxol, 24 h, MCF-7
HeLa-A3 cells = assay: S100P-enhanced cell migration, HeLa-A3; type: cell-based, human; conditions: HeLa-A3; 20 nM taxol or 5 µM colchicine, 24 h
Excerpt: as §1

Rama 37 cells = assay: Boyden chamber cell migration with MT regulators, Rama 37; conditions: 20 nM taxol, 24 h
Rama 37-T25 cells = assay: S100P-enhanced cell migration, Rama 37-T25; type: cell-based, rat; conditions: Rama 37-T25; 20 nM taxol or 5 µM colchicine, 24 h
Excerpt: as §1

COS-7 cells = assay: Boyden chamber cell migration, COS-7 parental; type: cell-based, monkey
Excerpt: as §1

Dicytostelial cells = conditions: ref [40]; cited from earlier work
Excerpt: It was reported that complete disruption of MTs in CHO and HeLa cells retained normal migration rates, but the resultant movement became more random and reduced overall travel distance. […] Well-established MTs may increase the rigidity of cells as well as their polarity and play a constraining role to limit a cell's ability of moving and changing direction. […] However, unlike the scratch wound- ...

[2] = biological target: DIC peptide, the 26mer starting with DIC from β-tubulin; assay: ITC; peptide (10-400 µM) in the cell titrated with S100P (0.5-3 mM); 25°C; 20 mM MES pH 6.1, 50 mM NaCl, 1.0 mM TCEP, 5 mM CaCl2; single site fit
[3] = biological target: VNA peptide from the C terminus of α-tubulin (human); assay: as above
[4] = biological target: T2, α,β-tubulin immobilised on a chip (human | , UniProt Q71U36 1-451; P07437 1-444); assay: SPR; α,β-tubulin immobilised on CM5 chip; S100P in solution; Kd from the ratio of forward and backward rate constants; conditions: both partners purified
T2 sequence (P68363 whole entry, chain 1 of 2): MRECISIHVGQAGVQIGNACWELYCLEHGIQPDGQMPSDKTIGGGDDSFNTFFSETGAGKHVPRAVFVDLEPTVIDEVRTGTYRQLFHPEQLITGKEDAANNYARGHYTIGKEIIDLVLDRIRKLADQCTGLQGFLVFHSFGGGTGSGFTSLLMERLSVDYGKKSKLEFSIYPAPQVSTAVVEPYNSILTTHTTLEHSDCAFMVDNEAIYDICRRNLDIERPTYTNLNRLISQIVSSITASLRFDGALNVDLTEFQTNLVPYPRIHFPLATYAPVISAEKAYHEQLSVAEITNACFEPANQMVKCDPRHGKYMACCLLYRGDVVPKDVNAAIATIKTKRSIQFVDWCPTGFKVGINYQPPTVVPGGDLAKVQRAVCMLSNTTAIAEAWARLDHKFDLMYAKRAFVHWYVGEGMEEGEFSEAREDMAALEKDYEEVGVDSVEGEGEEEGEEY
T2 sequence (P07437 whole entry, chain 2 of 2): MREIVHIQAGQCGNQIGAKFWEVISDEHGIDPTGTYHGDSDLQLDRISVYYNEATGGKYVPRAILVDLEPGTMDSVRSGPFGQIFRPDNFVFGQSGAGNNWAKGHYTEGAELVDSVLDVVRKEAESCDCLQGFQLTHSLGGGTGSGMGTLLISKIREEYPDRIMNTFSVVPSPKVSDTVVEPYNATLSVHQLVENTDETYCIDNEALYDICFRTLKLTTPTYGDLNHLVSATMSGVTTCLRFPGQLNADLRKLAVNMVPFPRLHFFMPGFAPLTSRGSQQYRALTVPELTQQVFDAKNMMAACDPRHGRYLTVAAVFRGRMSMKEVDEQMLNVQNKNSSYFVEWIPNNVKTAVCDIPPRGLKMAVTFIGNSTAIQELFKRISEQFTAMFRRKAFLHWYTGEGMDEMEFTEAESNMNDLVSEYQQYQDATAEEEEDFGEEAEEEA

[5] = biological target: T2, α,β-tubulin immobilised on a chip; assay: SPR; α,β-tubulin immobilised on CM5 chip; S100P in solution; high salt buffer (0.5 M NaCl) with 200 µM CaCl2; multiple cycles; Kd at or near equilibrium; conditions: both partners purified
[6] = biological target: T2, α,β-tubulin immobilised on a chip; assay: cell-based or functional assay
[7] = biological target: T2, α,β-tubulin immobilised on a chip; assay: SPR; α,β-tubulin immobilised on CM5 chip (BS3), Biacore X100; S100P 20-2000 nM in solution; 0.15 M NaCl, 200 µM CaCl2; multiple-cycle; Kd from extent of binding near equilibrium; conditions: both partners purified
[8] = biological target: T2, α,β-tubulin immobilised on a chip; assay: SPR; α,β-tubulin immobilised on CM5 chip; S100P in solution; single-cycle analysis; Kd near equilibrium; conditions: both partners purified

DICFRTLKLTTPTYGDLNHLVSATMS [DIC]
Kd (S100P): 9 µM | solubility / aggregation (in words) [1]: sufficiently soluble to measure their binding parameters by ITC

CC(=O)O[C@H]1C(=O)[C@@]2(C)[C@H]([C@H](OC(=O)c3ccccc3)[C@]3(O)C[C@H](OC(=O)[C@H](O)[C@@H](NC(=O)c4ccccc4)c4ccccc4)C(C)=C1C3(C)C)[C@]1(OC(C)=O)CO[C@@H]1C[C@@H]2O [taxol]
reduction of migration by taxol (HeLa cells): 70–75% | effect on S100P-enhanced migration (COS-7 S10 cells): suppressed | effect on S100P-enhanced migration (COS-7 S10 cells; listed as Taxol): completely prevents the S100P-induced stimulation of migration | effect on S100P's stimulation of migration (COS-7 S10 cells; taxol to stabilise MTs or colchicine to dissociate MTs (abstract)): abolished | effect on cell migration (cell migration): significantly reduced cell migration in almost all cell types tested | reduction of migration by taxol (MCF-7 cells): 70–75% | effect on S100P-enhanced migration (HeLa-A3 cells): suppressed | reduction of migration by taxol (Rama 37 cells): 70–75% | effect on S100P-enhanced migration (Rama 37-T25 cells): suppressed | reduction of migration by taxol (COS-7 cells; 20 nM taxol, 24 h, COS-7): 70–75% | dose dependence of taxol effect on migration (COS-7 cells; Supplementary Figure S4, COS-7, 24 h): significantly reduced cell migration in a dose-dependent manner

COC(=O)Nc1nc2ccc(C(=O)c3cccs3)cc2[nH]1 [nocodazole]
effect on cell migration (Dicytostelial cells): could significantly increase cell migration and shape changes, but reduced chemotaxis; also recorded: dramatically enhance the non-directional (random) movements

B1: Recombinant S100P (natural protein)
chain: T1 sequence (P25815 1-95)
modifications: 15N-labelled in the NMR experiments
notes: S100P; Used in SPR, gel overlay, NMR and ITC; also called 15N-labelled S100P; source: recombinant, produced as described previously [10]
Kd [2]: 9 µM | Kd [3]: 62 µM | stoichiometry N (peptide:protein) [3]: 2 | Kd [4]: 0.1 to 0.2 µM | Kd [5]: 6.1 µM | S100P-induced fold increase in migration of COS-7 S10 cells (3.4 or 3.5 fold with DMSO or Tag), with 20 µM T-DIC [6]: 1.4 fold | S100P-induced fold increase in migration of COS-7 S10 cells (3.4 or 3.5 fold with DMSO or Tag), with 20 µM T-DLV [6]: 1.5 fold | Kd [7]: 0.31 µM | Kd [8]: 0.22 µM
